Results: US6355799B1, “Substituted benzene compounds, process for their preparation, and herbicidal and defoliant compositions containing them” (ISK Americas Incorporated, priority 1997, dated 2002)

Assays:
Assay type in all cases: in vivo
[1] = system: redroot pigweed (Amaranthus retroflexus, AMARE); assay: Pre-emerge test, greenhouse herbicide activity screening; details: rating scale 0-100, 14 days after application
Outline: (§1)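 Visual ratings on a 0-100 scale (0 no damage, 100 all plants dead) were taken at 14 days after treatment. Rates of 15-1000 g ai/ha in acetone, 187 l/ha, were sprayed onto soil one day after planting (pre-emerge) or onto 2-3 leaf plants with 0.25% v/v surfactant (post-emerge).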

[2] = system: barnyardgrass (Echinochloa crus-galli, ECHCG); assay: as above; details: rating scale 0-100, 14 days after application
Outline: (§2)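 Herbicidal damage is scored 0 (none) to 100 (complete plant death) two weeks after a simulated field spray. Rates span 15–1000 g ai/ha, delivered in acetone at 187 l/ha. For post-emergence treatments, plants have 2–3 leaves and the spray carries 0.25% v/v non-ionic surfactant.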

[3] = system: green foxtail (Setaria viridis, SETVI); assay: as above; details: rating scale 0-100, 14 days after application
Outline: as §2

[4] = system: ivyleaf morningglory (Ipomoea hederacea, IPOHE); assay: as above; details: rating scale 0-100, 14 days after application
Outline: as §2

[5] = system: johnsongrass (Sorghum halepense, SORHA); assay: as above; details: rating scale 0-100, 14 days after application
Outline: as §2

[6] = system: lambsquarters (Chenopodium album, CHEAL); assay: as above; details: rating scale 0-100, 14 days after application
Outline: as §2

[7] = system: large crabgrass (Digitaria sanguinalis, DIGSA); assay: as above; details: rating scale 0-100, 14 days after application
Outline: as §2

[8] = system: sicklepod (Cassia obtusifolia, CASOB); assay: as above; details: rating scale 0-100, 14 days after application
Outline: as §2

[9] = system: velvetleaf (Abutilon theophrasti, ABUTH); assay: as above; details: rating scale 0-100, 14 days after application
Outline: as §2

[10] = system: field corn (Zea mays L., var. Dekalb 535, CORN); assay: Pre-emerge test, crop safety; details: 63 g ai/ha; rating scale 0-100, 14 days after application
Outline: (§3)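 Sandy loam pots; pre-emerge: sown 1 d pre-spray, surface-watered after, then bottom-watered. Post-emerge: sown 8–21 d before, 2–3 leaf stage, + 0.25% v/v NIS, bottom-watered. Acetone, 187 l/ha track spray, 15–1000 g ai/ha. 0–100 injury score, day 14.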

[11] = system: upland rice (Oryza sp., var. Tebonnet, RICE); assay: Pre-emerge test, crop safety; details: rating scale 0-100, 14 days after application
Outline: as §3

[12] = system: barnyardgrass (Echinochloa crus-galli, ECHCG); assay: Post-emerge test, greenhouse herbicide activity screening; details: rating scale 0-100 (0 no damage, 100 complete death), 14 days after application
Outline: as §1

[13] = system: common ragweed (Ambrosia artemisizfolia L., AMBEL); assay: as above; details: rating scale 0-100 (0 no damage, 100 complete death), 14 days after application
Outline: as §1

[14] = system: green foxtail (Setaria viridis, SETVI); assay: as above; details: rating scale 0-100 (0 no damage, 100 complete death), 14 days after application
Outline: as §1

[15] = system: ivyleaf morningglory (Ipomoea hederacea, IPOHE); assay: as above; details: rating scale 0-100 (0 no damage, 100 complete death), 14 days after application
Outline: as §1

[16] = system: johnsongrass (Sorghum halepense, SORHA); assay: as above; details: rating scale 0-100 (0 no damage, 100 complete death), 14 days after application
Outline: as §1

[17] = system: lambsquarters (Chenopodium album, CHEAL); assay: as above; details: rating scale 0-100 (0 no damage, 100 complete death), 14 days after application
Outline: as §1

[18] = system: large crabgrass (Digitaria sanguinalis, DIGSA); assay: as above; details: rating scale 0-100 (0 no damage, 100 complete death), 14 days after application
Outline: as §1

[19] = system: redroot pigweed (Amaranthus retroflexus, AMARE); assay: as above; details: rating scale 0-100 (0 no damage, 100 complete death), 14 days after application
Outline: as §1

[20] = system: sicklepod (Cassia obtusifolia, CASOB); assay: as above; details: rating scale 0-100 (0 no damage, 100 complete death), 14 days after application
Outline: as §1

[21] = system: velvetleaf (Abutilon theophrasti, ABUTH); assay: as above; details: rating scale 0-100 (0 no damage, 100 complete death), 14 days after application
Outline: as §1

[22] = system: field corn (Zea mays L., var. Dekalb 535, CORN); assay: Post-emerge test, crop safety; details: rating scale 0-100 (0 no damage, 100 complete death), 14 days after application
Outline: as §2

[23] = system: upland rice (Oryza sp., var. Tebonnet, RICE); assay: Post-emerge test, crop safety; details: rating scale 0-100 (0 no damage, 100 complete death), 14 days after application
Outline: as §2

In the case of `COCCOC(=O)C(Cl)Cc1c(OC)c(Cl)cc(F)c1-n1c(=O)cc(C(F)(F)F)n(C)c1=O` (stereo not drawn) [14-25], the “Pre-emerge herbicidal activity, phytotoxicity rating AMARE” value ([1]; 63 g ai/ha) is reported as 100, the “Pre-emerge herbicidal activity, phytotoxicity rating AMARE” value ([1]; 250 g ai/ha) is reported as 100 and the “Pre-emerge herbicidal activity, phytotoxicity rating ECHCG” value ([2]; 63 g ai/ha) is reported as 80. For the same compound, the “Pre-emerge herbicidal activity, phytotoxicity rating ECHCG” value ([2]; 250 g ai/ha) was 100, the “Pre-emerge herbicidal activity, phytotoxicity rating SETVI” value ([3]; 63 g ai/ha) was 90 and the “Pre-emerge herbicidal activity, phytotoxicity rating SETVI” value ([3]; 250 g ai/ha) was 100. For the same compound, the “Pre-emerge herbicidal activity, phytotoxicity rating IPOHE” value ([4]; 63 g ai/ha) was 70, the “Pre-emerge herbicidal activity, phytotoxicity rating IPOHE” value ([4]; 250 g ai/ha) was 100 and the “Pre-emerge herbicidal activity, phytotoxicity rating SORHA” value ([5]; 63 g ai/ha) was 80. For the same compound, the “Pre-emerge herbicidal activity, phytotoxicity rating SORHA” value ([5]; 250 g ai/ha) was 100, the “Pre-emerge herbicidal activity, phytotoxicity rating CHEAL” value ([6]; 63 g ai/ha) was 100 and the “Pre-emerge herbicidal activity, phytotoxicity rating CHEAL” value ([6]; 250 g ai/ha) was 100. The “Pre-emerge herbicidal activity, phytotoxicity rating DIGSA” value ([7]; 63 g ai/ha) was 70, the “Pre-emerge herbicidal activity, phytotoxicity rating DIGSA” value ([7]; 250 g ai/ha) was 100 and the “Pre-emerge herbicidal activity, phytotoxicity rating CASOB” value ([8]; 63 g ai/ha) was 50. For the same compound, the “Pre-emerge herbicidal activity, phytotoxicity rating CASOB” value ([8]; 250 g ai/ha) was 100, the “Pre-emerge herbicidal activity, phytotoxicity rating ABUTH” value ([9]; 63 g ai/ha) was 100 and the “Pre-emerge herbicidal activity, phytotoxicity rating ABUTH” value ([9]; 250 g ai/ha) was 100. The “Pre-emerge phytotoxicity rating, crop damage CORN” value [10] was 95, the “Pre-emerge phytotoxicity rating, crop damage RICE” value ([11]; 63 g ai/ha) was 90 and the “Pre-emerge phytotoxicity rating, crop damage RICE” value ([11]; 250 g ai/ha) was 100. For the same compound, the “Post-emerge Herbicidal Activity, phytotoxicity rating ECHCG” value ([12]; Rate 63 g ai/ha) was 100, the “Post-emerge Herbicidal Activity, phytotoxicity rating ECHCG” value ([12]; Rate 250 g ai/ha) was 100 and the “Post-emerge Herbicidal Activity, phytotoxicity rating AMBEL” value ([13]; Rate 63 g ai/ha) was 100. For the same compound, the “Post-emerge Herbicidal Activity, phytotoxicity rating AMBEL” value ([13]; Rate 250 g ai/ha) was 100, the “Post-emerge Herbicidal Activity, phytotoxicity rating SETVI” value ([14]; Rate 63 g ai/ha) was 50 and the “Post-emerge Herbicidal Activity, phytotoxicity rating SETVI” value ([14]; Rate 250 g ai/ha) was 80. The “Post-emerge Herbicidal Activity, phytotoxicity rating IPOHE” value ([15]; Rate 63 g ai/ha) was 70, the “Post-emerge Herbicidal Activity, phytotoxicity rating IPOHE” value ([15]; Rate 250 g ai/ha) was 100 and the “Post-emerge Herbicidal Activity, phytotoxicity rating SORHA” value ([16]; Rate 63 g ai/ha) was 40. For the same compound, the “Post-emerge Herbicidal Activity, phytotoxicity rating SORHA” value ([16]; Rate 250 g ai/ha) was 95, the “Post-emerge Herbicidal Activity, phytotoxicity rating CHEAL” value ([17]; Rate 63 g ai/ha) was 80 and the “Post-emerge Herbicidal Activity, phytotoxicity rating CHEAL” value ([17]; Rate 250 g ai/ha) was 100. For the same compound, the “Post-emerge Herbicidal Activity, phytotoxicity rating DIGSA” value ([18]; Rate 63 g ai/ha) was 95, the “Post-emerge Herbicidal Activity, phytotoxicity rating DIGSA” value ([18]; Rate 250 g ai/ha) was 100 and the “Post-emerge Herbicidal Activity, phytotoxicity rating AMARE” value ([19]; Rate 63 g ai/ha) was 95. The “Post-emerge Herbicidal Activity, phytotoxicity rating AMARE” value ([19]; Rate 250 g ai/ha) was 100, the “Post-emerge Herbicidal Activity, phytotoxicity rating CASOB” value ([20]; Rate 63 g ai/ha) was 50 and the “Post-emerge Herbicidal Activity, phytotoxicity rating CASOB” value ([20]; Rate 250 g ai/ha) was 80. For the same compound, the “Post-emerge Herbicidal Activity, phytotoxicity rating ABUTH” value ([21]; Rate 63 g ai/ha) was 100, the “Post-emerge Herbicidal Activity, phytotoxicity rating ABUTH” value ([21]; Rate 250 g ai/ha) was 100 and the “Post-emerge phytotoxicity rating CORN (crop damage)” value ([22]; Rate 63 g ai/ha) was 100. For the same compound, the “Post-emerge phytotoxicity rating CORN (crop damage)” value ([22]; Rate 250 g ai/ha) was 100, the “Post-emerge phytotoxicity rating RICE (crop damage)” value ([23]; Rate 63 g ai/ha) was 10 and the “Post-emerge phytotoxicity rating RICE (crop damage)” value ([23]; Rate 250 g ai/ha) was 50.
